Test results published in patent publication US8916149B2, “Preventing and treating sepsis” (University of Rochester, priority 2008, dated 2014).

B1: RGE-APC: rhAPC mutant with the RGD sequence mutated to RGE (Glu in place of Asp-222) (protein)
chain 1: ANSFLEELRHSSLERECIEEICDFEEAKEIFQNVDDTLAFWSKHVDGDQCLVLPLEHPCASLCCGHGTCIDGIGSFSCDCRSGWEGRFCQREVSFLNCSLDNGGCTHYCLEEVGWRRCSCAPGYKLGDDLLQCHPAVKFPCGRPWKRMEKKRSHL
chain 2: LIDGKMTRRGESPWQVVLLDSKKKLACGAVLIHPSWVLTAAHCMDESKKLLVRLGEYDLRRWEKWELDLDIKEVFVHPNYSKSTTDNDIALLHLAQPATLSQTIVPICLPDSGLAERELNQAGQETLVTGWGYHSSREKEAKRNRTFVLNFIKIPVVPHNECSEVMSNMVSENMLCAGILGDRQDACEGDSGGPMVASFHGTWFLVGLVSWGEGCGLLHNYGVYTKVSRYLDWIHGHIRDKEAPQKSWAP

Key:
[1] = test system: human neutrophils; test: Random migration of neutrophils on FN-coated cover glass (live-cell imaging); assay type: cell-based; settings: for reversal of the inhibitory effect of rhAPC on neutrophil migration: agonists of PAR-1 and S1P1; for random migration of neutrophils on FN induced by fMLP: 10 μg/ml protein
Experimental: Delta T dishes were coated with human FN (50 μg/ml, BD Biosciences, San Jose, Calif.) for overnight at 4° C. and then for 4 h at room temperature. Plates were then rinsed with L-15 media. […] The cells were then added to FN-coated dishes in 1.5 ml of L-15 with 2 mg/ml of glucose. For neutrophil live cell staining, 2 μM Green Cell Tracker CMFDA (5-chloromethylfluorescein diacetate; Molecular Probes, Carlsbad, Calif.) was used. Temperature was maintained at 37° C. throughout the experiment using a FCS2 live-cell imaging chamber (Bioptechs, Butler, Pa.). Images were acquired for 30 to 60 minutes under a 10× objective lens using a Nikon TE-2000U inverted microscope. Phase contrast images were acquired every 5 seconds and fluorescence images every 30 seconds. Cell paths were traced using MetaVue™ imaging software (Molecular Devices Corporation, Downingtown, Pa.).
Random migration was investigated by adding fMLP or IL-8 to media at a final concentration of 10^−8M and analyzed by manually tracing the outline of each cell in selected frames (i.e., at 50 second intervals). The x and y coordinates of each cell were measured using ImageJ software and were corrected so that the starting position was x=0 and y=0.
The time-lapsed images of migrating neutrophils were taken under phase contrast microscopy. Each image was thresholded and binarized based on brightness to define the centroids of the neutrophils. The closest centroids between consecutive images were linked as a trajectory under the assumption that these centroids were made by the same neutrophil. The maximum distance between the closest centroids was also defined to preclude the artifacts due to cells moving into and out of the field of view.

[2] = test system: human neutrophils; test: Neutrophil adhesion assay on immobilized fibronectin (FN); assay type: cell-based; settings: 10 μg/ml protein
Experimental: The adhesion assay was carried out essentially as described (Vorup-Jensen et al., PNAS 102:1614 (2005)). Cover slips were coated with FN in coating buffer (150 mM NaCl/20 mM Tris.HCl, pH 9.0) for over night at 4° C. and for 4 hours at room temperature. Residual binding sites were blocked by incubation of the wells with 0.05% (wt/vol) polyvinylpyrrolidone in PBS for 30 minutes at room temperature. […] The cover slips were aspirated, and washed with L15 medium. […] Cells (250 μl) were then immediately added, and further incubated at 37° C. for 15 minutes. Unbound cells were then washed with warm L15 medium. The bound cells were then fixed with formaldehyde. For each experimental condition from three independent donors, five random phase-contrast images were obtained, and the number of cells in each well was scored from printed micrographs.

[3] = target: T1, α5β1 (Homo sapiens, UniProt P05556+P08648); test: Solid phase integrin ligand binding assay; settings: 1 mM Mn2+, 1 mM Ca2+, 1 mM Mg2+
T1 construct: purchased US Biological, Swampscott, Mass
Experimental: (§1) The solid phase binding assay was performed using purified soluble human α3β1, α5β1, and αVβ3 (US Biological, Swampscott, Mass.). Two (2) μg/ml of soluble integrins were added to microtiter wells for capture with immobilized monoclonal antibody against β1 or β3 subunits (mAb TS2/6 for β1 and mAb BB10 (Chemicon, Temecula, Calif.) for β3 integrins). […] After washing, bound APC was chromogenically detected by peroxidase-streptavidin conjugate anti-PC (Diapharma, West Chester, Ohio) or chromogenic substrate S-2366 (Diapharma, West Chester, Ohio). To minimize dissociation, all wash buffers contained 1 mM Mn^2+, and <15 minutes elapsed between the end of binding and beginning of color development. Functional blocking antibodies for integrins were from Chemicon (Temecula, Calif.).
(§2) Among the neutrophil integrins that recognize the RGD motif, α3β1, α5β1, and αVβ3 are key in regulating neutrophil chemotaxis (Yauch et al., Mol. Biol. Cell 9:2751 (1998); Burns et al., J. Immunol. 166:4644 (2001); Sixt et al., J. Biol. Chem. 276:18878 (2001)). To test whether APC can bind directly to the integrins, an ELISA-like solid phase receptor-binding assay was performed (FIG. 2E). Soluble α3β1, α5β1, and αVβ3 were captured onto microtiter wells using mAbs specific for β1 or β3.

[4] = target: T2, αVβ3 (Homo sapiens, UniProt P05106+P06756); test: Solid phase integrin ligand binding assay; settings: 1 mM Mn2+, 1 mM Ca2+, 1 mM Mg2+
T2 construct: purchased US Biological, Swampscott, Mass
Experimental: as §1, §2

[5] = target: T3, α3β1 (Homo sapiens, UniProt P05556+P26006); test: Solid phase integrin ligand binding assay; settings: 1 mM Mn2+, 1 mM Ca2+, 1 mM Mg2+
T3 construct: purchased US Biological, Swampscott, Mass
Experimental: as §1, §2

T2 sequence (P06756 31-889 limits assumed): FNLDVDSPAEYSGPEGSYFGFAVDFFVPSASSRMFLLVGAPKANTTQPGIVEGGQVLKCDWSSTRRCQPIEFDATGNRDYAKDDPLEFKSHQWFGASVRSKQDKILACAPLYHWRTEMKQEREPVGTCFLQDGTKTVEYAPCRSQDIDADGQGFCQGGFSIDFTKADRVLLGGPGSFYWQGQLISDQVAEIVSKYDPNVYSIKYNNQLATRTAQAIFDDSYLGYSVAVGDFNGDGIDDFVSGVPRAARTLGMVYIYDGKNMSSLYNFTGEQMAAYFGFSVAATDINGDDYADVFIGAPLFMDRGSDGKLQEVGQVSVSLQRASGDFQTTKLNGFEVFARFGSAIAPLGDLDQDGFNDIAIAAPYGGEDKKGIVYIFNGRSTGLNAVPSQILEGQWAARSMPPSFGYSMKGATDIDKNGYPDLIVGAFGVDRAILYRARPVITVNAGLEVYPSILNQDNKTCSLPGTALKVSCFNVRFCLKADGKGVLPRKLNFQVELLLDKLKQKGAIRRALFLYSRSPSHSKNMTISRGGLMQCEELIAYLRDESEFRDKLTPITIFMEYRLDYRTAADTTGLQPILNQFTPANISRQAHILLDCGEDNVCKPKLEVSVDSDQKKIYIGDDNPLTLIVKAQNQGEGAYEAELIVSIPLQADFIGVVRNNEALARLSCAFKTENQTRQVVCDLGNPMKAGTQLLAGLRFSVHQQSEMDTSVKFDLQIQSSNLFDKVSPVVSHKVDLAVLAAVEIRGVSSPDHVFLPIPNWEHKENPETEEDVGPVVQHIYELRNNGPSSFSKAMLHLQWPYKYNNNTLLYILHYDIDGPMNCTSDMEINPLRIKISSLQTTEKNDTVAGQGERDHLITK
T2 sequence (P06756 891-1048 partner limits assumed): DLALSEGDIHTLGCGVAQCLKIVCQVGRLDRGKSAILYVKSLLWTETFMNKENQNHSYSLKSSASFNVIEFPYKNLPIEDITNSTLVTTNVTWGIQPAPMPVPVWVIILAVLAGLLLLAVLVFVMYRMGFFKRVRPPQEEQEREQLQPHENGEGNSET
T2 sequence (P05106 27-788): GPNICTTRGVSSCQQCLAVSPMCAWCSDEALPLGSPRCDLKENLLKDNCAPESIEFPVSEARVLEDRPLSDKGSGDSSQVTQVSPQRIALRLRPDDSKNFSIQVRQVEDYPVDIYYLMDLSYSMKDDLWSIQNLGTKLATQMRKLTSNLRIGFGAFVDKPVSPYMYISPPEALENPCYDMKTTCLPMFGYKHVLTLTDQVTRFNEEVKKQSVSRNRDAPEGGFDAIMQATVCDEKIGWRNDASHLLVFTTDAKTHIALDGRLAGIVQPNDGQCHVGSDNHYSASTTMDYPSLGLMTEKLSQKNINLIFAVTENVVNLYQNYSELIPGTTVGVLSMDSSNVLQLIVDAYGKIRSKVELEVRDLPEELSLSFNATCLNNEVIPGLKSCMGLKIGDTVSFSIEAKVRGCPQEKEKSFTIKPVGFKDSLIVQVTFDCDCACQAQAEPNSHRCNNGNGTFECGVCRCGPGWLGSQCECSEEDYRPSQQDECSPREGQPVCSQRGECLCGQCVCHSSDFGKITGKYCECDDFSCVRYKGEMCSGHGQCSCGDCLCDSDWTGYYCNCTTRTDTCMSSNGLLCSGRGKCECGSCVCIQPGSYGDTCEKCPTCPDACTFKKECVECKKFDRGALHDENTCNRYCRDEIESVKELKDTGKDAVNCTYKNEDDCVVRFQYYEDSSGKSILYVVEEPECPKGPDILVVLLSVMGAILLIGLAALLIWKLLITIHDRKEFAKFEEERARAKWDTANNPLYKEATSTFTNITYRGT
T1 sequence (P08648 42-894 limits assumed): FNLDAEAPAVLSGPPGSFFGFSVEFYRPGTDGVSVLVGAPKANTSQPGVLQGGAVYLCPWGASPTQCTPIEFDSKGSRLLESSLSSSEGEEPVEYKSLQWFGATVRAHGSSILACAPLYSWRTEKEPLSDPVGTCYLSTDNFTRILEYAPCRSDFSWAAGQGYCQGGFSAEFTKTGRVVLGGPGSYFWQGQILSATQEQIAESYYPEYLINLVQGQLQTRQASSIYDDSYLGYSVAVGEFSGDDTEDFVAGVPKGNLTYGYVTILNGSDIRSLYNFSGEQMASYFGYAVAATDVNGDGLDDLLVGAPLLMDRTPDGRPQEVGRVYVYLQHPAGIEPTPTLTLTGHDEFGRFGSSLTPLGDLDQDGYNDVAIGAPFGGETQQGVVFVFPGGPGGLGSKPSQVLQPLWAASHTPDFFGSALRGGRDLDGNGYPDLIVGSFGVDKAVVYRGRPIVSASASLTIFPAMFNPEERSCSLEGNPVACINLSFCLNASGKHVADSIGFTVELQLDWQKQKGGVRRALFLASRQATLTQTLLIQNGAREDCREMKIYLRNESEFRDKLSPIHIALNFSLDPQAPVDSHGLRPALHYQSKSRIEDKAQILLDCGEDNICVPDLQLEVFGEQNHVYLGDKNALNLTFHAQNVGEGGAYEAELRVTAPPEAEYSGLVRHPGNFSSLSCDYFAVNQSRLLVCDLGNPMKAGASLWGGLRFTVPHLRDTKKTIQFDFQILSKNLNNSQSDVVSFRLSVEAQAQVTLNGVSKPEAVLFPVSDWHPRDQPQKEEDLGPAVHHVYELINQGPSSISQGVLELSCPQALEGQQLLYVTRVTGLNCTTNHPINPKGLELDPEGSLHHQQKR
T1 sequence (P08648 895-1049 partner limits assumed): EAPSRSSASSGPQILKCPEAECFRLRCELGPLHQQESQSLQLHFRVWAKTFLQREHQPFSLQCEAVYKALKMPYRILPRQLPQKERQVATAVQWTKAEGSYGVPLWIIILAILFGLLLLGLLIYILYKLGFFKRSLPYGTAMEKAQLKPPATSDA
T1 sequence (P05556 21-798): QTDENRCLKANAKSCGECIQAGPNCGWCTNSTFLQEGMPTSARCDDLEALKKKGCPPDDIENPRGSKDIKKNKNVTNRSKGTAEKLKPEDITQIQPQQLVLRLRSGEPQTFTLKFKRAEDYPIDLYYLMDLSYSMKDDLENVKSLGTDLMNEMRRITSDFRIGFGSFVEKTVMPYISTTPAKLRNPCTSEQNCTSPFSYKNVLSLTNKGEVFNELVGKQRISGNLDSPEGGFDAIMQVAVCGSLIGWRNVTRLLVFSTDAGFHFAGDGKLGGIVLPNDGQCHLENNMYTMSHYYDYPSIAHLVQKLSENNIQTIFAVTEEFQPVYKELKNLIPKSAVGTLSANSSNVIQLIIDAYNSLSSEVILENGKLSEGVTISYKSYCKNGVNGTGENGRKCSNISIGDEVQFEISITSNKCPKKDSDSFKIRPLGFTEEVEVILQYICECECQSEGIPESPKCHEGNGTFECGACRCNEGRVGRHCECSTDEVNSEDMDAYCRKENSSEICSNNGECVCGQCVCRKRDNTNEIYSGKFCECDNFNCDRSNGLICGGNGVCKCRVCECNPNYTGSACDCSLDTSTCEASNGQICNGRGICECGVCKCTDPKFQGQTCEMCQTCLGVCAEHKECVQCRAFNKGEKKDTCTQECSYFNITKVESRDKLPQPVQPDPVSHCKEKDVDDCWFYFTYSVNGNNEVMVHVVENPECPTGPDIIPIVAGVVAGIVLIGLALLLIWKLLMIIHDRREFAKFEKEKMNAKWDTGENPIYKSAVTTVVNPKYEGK
T3 sequence (P26006 33-872 limits assumed): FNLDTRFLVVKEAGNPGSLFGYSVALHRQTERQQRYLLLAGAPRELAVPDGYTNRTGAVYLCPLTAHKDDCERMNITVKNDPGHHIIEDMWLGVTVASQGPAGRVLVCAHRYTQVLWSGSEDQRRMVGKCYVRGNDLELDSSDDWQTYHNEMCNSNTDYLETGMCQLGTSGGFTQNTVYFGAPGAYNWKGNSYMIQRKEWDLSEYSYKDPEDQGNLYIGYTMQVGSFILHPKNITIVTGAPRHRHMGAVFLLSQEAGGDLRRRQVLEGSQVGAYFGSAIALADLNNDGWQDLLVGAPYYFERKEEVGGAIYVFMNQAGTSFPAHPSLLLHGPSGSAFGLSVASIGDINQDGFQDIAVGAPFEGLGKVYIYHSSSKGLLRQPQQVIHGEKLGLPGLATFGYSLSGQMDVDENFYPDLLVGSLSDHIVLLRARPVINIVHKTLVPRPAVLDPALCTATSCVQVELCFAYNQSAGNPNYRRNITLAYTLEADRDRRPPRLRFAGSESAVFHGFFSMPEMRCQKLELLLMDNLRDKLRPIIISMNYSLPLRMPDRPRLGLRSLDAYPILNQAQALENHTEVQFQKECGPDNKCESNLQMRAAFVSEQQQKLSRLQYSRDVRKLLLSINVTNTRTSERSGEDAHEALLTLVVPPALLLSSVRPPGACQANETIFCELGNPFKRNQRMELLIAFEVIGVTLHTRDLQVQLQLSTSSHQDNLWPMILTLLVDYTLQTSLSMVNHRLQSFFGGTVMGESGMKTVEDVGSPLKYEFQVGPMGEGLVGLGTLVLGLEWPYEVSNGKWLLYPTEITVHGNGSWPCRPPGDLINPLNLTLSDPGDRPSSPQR
T3 sequence (P26006 876-1051 partner limits assumed): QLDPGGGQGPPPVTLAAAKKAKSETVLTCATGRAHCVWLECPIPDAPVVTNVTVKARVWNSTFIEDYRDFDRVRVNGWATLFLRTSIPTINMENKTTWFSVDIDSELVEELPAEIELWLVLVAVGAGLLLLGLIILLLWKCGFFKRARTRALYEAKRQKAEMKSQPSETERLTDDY
T3 sequence (P05556 21-798): as the sequence (P05556 21-798) above

Molecule	reversal of the inhibitory effect of rhAPC on neutrophil migration [1]	random migration of neutrophils on FN induced by fMLP [1]	other results
FC(F)(F)c1cccc(-c2noc(-c3cc(-c4ccccc4)c(C(F)(F)F)s3)n2)c1 [SEW2871, reference compound]	did not reverse	–	–
SFLLRNPNDKYEPF (Aritficial Sequence) [reference compound]	did not reverse	–	–
rhPC: the zymogen protein C, not activated [reference compound]	–	failed to block	fMLP-induced adhesion of human neutrophils to immobilized FN [2]: failed to block
B1	–	had no effect	direct binding to soluble α5β1 [3]: significantly less; direct binding to soluble αVβ3 [4]: significantly less; direct binding to soluble α3β1 [5]: significantly less
